Reference: PMC12136991 (ACS chemical neuroscience, 2025)
≈ marks a conversion by molar mass, not a printed value. Where “and” joins values, the source holds several entries; their conditions need not be identical. Identical values can stand only once.

How the values were obtained:
[1] = Multi-point microsome stability assay, rat; type: in vitro ADME; conditions: male, Sprague Dawley, rat microsomal fractions, pH 7.4
[2] = Multi-point cytosol stability assay, human; type: in vitro ADME; conditions: human cytosol fractions, pH 7.4
[3] = Multi-point microsome stability assay, human; type: in vitro ADME; conditions: both, human microsomal fractions, pH 7.4
[4] = target: T1, human δ-opioid receptor (OPRD1) (Homo sapiens, UniProt P41143); experiment: Forskolin-induced cAMP accumulation assay, DOR agonist mode; conditions: for Emax: read-out: DOR Agonist %Emax ± SEM
T1 sequence (P41143 whole entry): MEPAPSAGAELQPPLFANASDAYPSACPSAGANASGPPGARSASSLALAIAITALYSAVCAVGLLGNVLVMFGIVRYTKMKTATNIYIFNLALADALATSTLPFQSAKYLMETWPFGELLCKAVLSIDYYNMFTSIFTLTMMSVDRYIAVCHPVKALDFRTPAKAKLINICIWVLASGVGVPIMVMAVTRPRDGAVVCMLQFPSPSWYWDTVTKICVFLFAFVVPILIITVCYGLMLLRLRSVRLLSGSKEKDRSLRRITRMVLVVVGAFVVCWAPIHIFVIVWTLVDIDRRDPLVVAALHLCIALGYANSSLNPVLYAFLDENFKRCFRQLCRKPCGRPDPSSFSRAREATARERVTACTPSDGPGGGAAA

[5] = Multi-point microsome stability assay, mouse; type: in vitro ADME; conditions: male, CD-1, mouse, mouse microsomal fractions, pH 7.4
[6] = target: T2, human κ-opioid receptor (OPRK1) (Homo sapiens, UniProt P41145); experiment: Forskolin-induced cAMP accumulation assay, KOR agonist mode; conditions: for Emax: read-out: KOR Agonist %Emax ± SEM
T2 sequence (P41145 whole entry): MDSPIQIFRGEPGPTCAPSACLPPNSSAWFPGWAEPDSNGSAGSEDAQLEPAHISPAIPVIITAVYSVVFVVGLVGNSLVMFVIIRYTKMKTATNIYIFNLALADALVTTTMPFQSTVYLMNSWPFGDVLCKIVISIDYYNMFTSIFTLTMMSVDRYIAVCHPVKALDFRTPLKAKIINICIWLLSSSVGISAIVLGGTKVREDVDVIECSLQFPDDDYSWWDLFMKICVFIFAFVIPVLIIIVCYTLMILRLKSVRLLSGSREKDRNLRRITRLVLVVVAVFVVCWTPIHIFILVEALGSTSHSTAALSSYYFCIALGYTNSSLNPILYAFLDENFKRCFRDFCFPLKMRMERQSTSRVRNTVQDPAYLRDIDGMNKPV

[7] = Multi-point cytosol stability assay, mouse; type: in vitro ADME; conditions: mouse cytosol fractions, pH 7.4
[8] = target: human μ-opioid receptor (OPRM1) (Homo sapiens, UniProt P35372); experiment: cell-based; conditions: for Emax: OPRM1, read-out: MOR Agonist %Emax ± SEM
Chain of human μ-opioid receptor (OPRM1) (P35372 whole entry): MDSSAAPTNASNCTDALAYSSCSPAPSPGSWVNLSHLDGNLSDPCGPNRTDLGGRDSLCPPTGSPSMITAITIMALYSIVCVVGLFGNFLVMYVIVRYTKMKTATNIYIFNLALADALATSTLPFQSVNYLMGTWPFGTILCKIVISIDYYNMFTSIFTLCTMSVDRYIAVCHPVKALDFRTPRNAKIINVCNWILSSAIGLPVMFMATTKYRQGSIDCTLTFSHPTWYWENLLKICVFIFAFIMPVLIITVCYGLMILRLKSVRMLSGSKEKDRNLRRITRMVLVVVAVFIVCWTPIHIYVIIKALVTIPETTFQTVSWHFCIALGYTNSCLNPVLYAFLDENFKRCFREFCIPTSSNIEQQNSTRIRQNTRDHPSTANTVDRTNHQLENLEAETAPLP

Kinetic solubility assay = type: physicochemical; conditions: kinetic from dmso stock
[9] = Multi-point cytosol stability assay, rat; type: in vitro ADME; conditions: rat cytosol fractions, pH 7.4
[10] = target: T1, human δ-opioid receptor (OPRD1); experiment: Forskolin-induced cAMP accumulation assay, DOR antagonist mode; conditions: for DOR Antagonist %Imax ± SEM: versus EC50 of SNC80, normalized to naltrexone
[11] = target: T3, mouse mu opioid receptor (mMOR-CHO) (Mus musculus, UniProt P42866); experiment: [35S]GTPγS functional assay, mMOR-CHO membranes; type: biochemical
T3 sequence (P42866 whole entry): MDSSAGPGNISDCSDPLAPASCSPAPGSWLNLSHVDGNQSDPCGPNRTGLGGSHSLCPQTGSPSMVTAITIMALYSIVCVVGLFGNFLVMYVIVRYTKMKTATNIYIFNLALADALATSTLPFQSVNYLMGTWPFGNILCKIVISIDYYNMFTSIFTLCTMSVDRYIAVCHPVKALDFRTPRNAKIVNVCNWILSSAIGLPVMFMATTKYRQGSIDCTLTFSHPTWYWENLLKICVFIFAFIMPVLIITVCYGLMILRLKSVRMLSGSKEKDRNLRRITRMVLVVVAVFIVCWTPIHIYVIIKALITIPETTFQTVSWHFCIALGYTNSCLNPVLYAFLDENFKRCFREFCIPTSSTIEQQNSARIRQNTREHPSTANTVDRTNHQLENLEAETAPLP

mice = conditions: administered before IP 0.56% lactic acid; previously published; cited from earlier work
[12] = target: T2, human κ-opioid receptor (OPRK1); experiment: Forskolin-induced cAMP accumulation assay, KOR antagonist mode
[13] = Parallel artificial membrane permeability assay; type: in vitro ADME; conditions: for PAMPA permeability Papp: stirring double-sink PAMPA
[14] = target: T3, mouse mu opioid receptor (mMOR-CHO); experiment: Competition radioligand binding assay, [3H]naloxone, mMOR-CHO membranes

Row | SMILES | half-life at 1 μM [1] [min] | half-life at 1 μM [2] [min] | half-life at 1 μM [3] [min] | EC50 [4] [nM] | Emax [4] [%] | half-life at 1 μM [5] [min] | EC50 [6] [nM] | half-life at 1 μM [7] [min] | EC50 [8] [nM] | Emax [8] [%] | solubility kinetic (Kinetic solubility assay) [µg/mL] | half-life at 1 μM [9] [min] | IC50 [10] [nM] | DOR Antagonist %Imax ± SEM [10] [%] | other results
1 | C=C[C@H]1C2CCCC1(c1cccc(O)c1)CCN2CCc1ccccc1[N+](=O)[O-] (stereo in doubt) [compound 24, 3-((1S,SR,9R)-2-(2-Nitrophenethyl)-9-vinyl-2-azabicyclo[3.3.1]nonan-5-yl)phenol] | 0.41 | 112 | 5.02 | 954 ± 502 | 35.9 | 1.22 | > 10000 | 102 | 2.55 | 92.6 | > 39 | > 120 | 114 ± 11.7 | 63.5 ± 12.0 | Emax [6]: 0%
2 | C=C[C@H]1C2CCCC1(c1cccc(O)c1)CCN2CCc1cccc(O)c1 (stereo in doubt) [compound 25, 3-((1S,5R,9R)-2-(3-Hydroxyphenethyl)-9-vinyl-2-azabicyclo[3.3.1]nonan-5-yl)phenol] | 9.65 | > 120 | 27 | > 10000 | 0 | 4.02 | > 10000 | > 120 | 0.93 | 89.7 |  | > 120 | 107 ± 12.4 | 138.7 ± 19.3 | 
3 | C=C[C@H]1[C@H]2CCC[C@]1(c1cccc(O)c1)CCN2CCc1ccccc1 [DC-1–76.2, 3-((1R,5S,9R)-2-phenethyl-9-vinyl-2-azabicyclo[3.3.1]nonan-5-yl)phenol, reference compound] | 6.9 | 80.7 | 12 |  |  | 4.7 |  | 71.9 |  |  | 34 (≈ 97.8 µM) | > 120 |  | 119.1 ± 15.5 | GTPγS % Emax of (DAMGO) ([11]; MOR, % of maximal DAMGO stimulation): 29.09 ± 0.78%; effect on IP acid-induced depression of Crosses and Movement (mice): failed to alleviate IP acid-induced depression of Crosses but did alleviate IP acid-induced depression of Movement; KOR Antagonist %Imax ± SEM ([12]; versus EC90 of U50488H, normalized to nor-BNI): 97.1 ± 9.2%
4 | C=C[C@H]1[C@H]2CCC[C@]1(c1cccc(NC(C)=O)c1)CCN2CCc1ccccc1 [compound 3, N-(3-((1R,5S,9R)-2-Phenethyl-9-vinyl-2-azabicyclo[3.3.1]nonan-5-yl)phenyl)acetamide] | 3 | 78 | 21.3 | 303 ± 40.7 | 56.6 | 6.4 | 357 ± 109 | 22.9 | 2.73 | 101 | 38 (≈ 97.8 µM) | 88.1 |  |  | Emax [6]: 45.5%; Papp ([13]; PAMPA): 731 ×10⁻⁶ cm/s
5 | C=C[C@@H]1[C@H]2CCC[C@]1(c1cccc(O)c1)CCN2C [compound 10, 3-((1R,5S,9S)-2-Methyl-9-vinyl-2-azabicyclo[3.3.1]nonan-5-yl)phenol] | 50.8 | > 120 | > 120 | > 10000 |  | 72.1 | > 10000 | > 120 | > 10000 |  | > 25 | 116 | > 10000 |  | IC50 [12]: > 10000 nM
6 | C=C[C@H]1[C@H]2CCC[C@]1(c1cccc(O)c1)CCN2C [compound 11, 3-((1R,5S,9R)-2-Methyl-9-vinyl-2-azabicyclo[3.3.1]nonan-5-yl)phenol] | 62.6 | 97.9 | 68.9 | > 10000 |  | 21.8 | > 10000 | 112 | > 10000 |  | > 25 | > 120 | > 10000 |  | IC50 [12]: > 10000 nM
7 | C=C[C@H]1[C@H]2CCC[C@]1(c1cccc(O)c1)CCN2CC1CC1 [compound 15, 3-((1R,5S,9R)-2-(Cyclopropylmethyl)-9-vinyl-2-azabicyclo[3.3.1]nonan-5-yl)phenol] | 9.7 | > 120 | 8.7 | > 10000 |  | 2.7 | > 10000 | > 120 | > 10000 |  | > 29 | 108 | > 10000 |  | PAMPA permeability Papp [13]: >1000 10E-6 cm/s
8 | C=C[C@H]1[C@H]2CCC[C@]1(c1cccc(O)c1)CCN2CCc1cccs1 [compound 16, 3-((1R,5S,9R)-2-(2-(Thiophen-2-yl)ethyl)-9-vinyl-2-azabicyclo[3.3.1]nonan-5-yl)phenol] | 1.04 | > 120 | 8.21 | 13.2 ± 6.8 | 20 | 1.66 |  | > 120 | 0.8 | 101 | > 35 | > 120 | 59.8 ± 13 | 87.1 ± 13.9 | 
9 | C=C[C@H]1[C@H]2CCC[C@]1(c1cccc(O)c1)CCN2CCc1ccc([N+](=O)[O-])cc1 [compound 17, 3-((1R,5S,9R)-2-(4-Nitrophenethyl)-9-vinyl-2-azabicyclo[3.3.1]nonan-5-yl)phenol] | 12.9 | > 120 | 16.8 |  |  | 9.31 | > 10000 | 105 | > 10000 |  | 10.6 (≈ 27 µM) | > 120 | 105 ± 21.3 | 137.2 ± 9.7 | IC50 [11]: 16.2 ± 2.52 nM; GTPγS % Imax of (DAMGO) ([11]; MOR, maximal percent inhibition): 98.42% and 98.42 ± 4.24%; Ki [14]: 0.41 ± 0.05 nM
10 | C=C[C@H]1[C@H]2CCC[C@]1(c1cccc(O)c1)CCN2CCc1cccc([N+](=O)[O-])c1 [compound 18, 3-((1R,5S,9R)-2-(3-Nitrophenethyl)-9-vinyl-2-azabicyclo[3.3.1]nonan-5-yl)phenol] | 1.98 | > 120 | 10.6 | > 10000 |  | 3.54 | > 10000 | > 120 | 2.05 | 85.8 | > 39 | > 120 | 52.5 ± 8.43 | 149.9 ± 13.2 | Emax [6]: 0%; PAMPA permeability Papp [13]: >1000 10E-6 cm/s
11 | C=C[C@H]1[C@H]2CCC[C@]1(c1cccc(O)c1)CCN2CCc1ccc(F)cc1 [compound 19, 3-((1R,5S,9R)-2-(4-Fluorophenethyl)-9-vinyl-2-azabicyclo[3.3.1]nonan-5-yl)phenol] | 7.6 | > 120 | 11.8 | > 10000 |  | 5.26 | > 10000 | 108 | 3.33 | 74.3 | > 36 | 79.4 | 120 ± 18.5 | 153.1 ± 15.3 | 
12 | C=C[C@H]1[C@H]2CCC[C@]1(c1cccc(O)c1)CCN2CCc1ccc(O)cc1 [compound 20, 3-((1R,5S,9R)-2-(4-Hydroxyphenethyl)-9-vinyl-2-azabicyclo[3.3.1]nonan-5-yl)phenol] | 27.8 | > 120 | 88.1 | > 10000 |  | 12.5 | > 10000 | > 120 | 4.16 | 54.8 | > 34 | > 120 | 303 ± 29.2 | 163.6 ± 19.5 | 
